Laboratory results published in patent publication US11607419B2, “Inhibitors of RAC1 and uses thereof for inducing bronchodilatation” (INSTITUT NATIONAL DE LA SANTE ET DE LA RECHERCHE MEDICALE …, priority 2017, dated 2023).
pIC50: −log10 of the molar value. Entries after “also recorded” stand apart in the source; their conditions may differ. Values belong to the molecule of their own block, whether it stands above or below them.

Key:
[1] = target: T1, Rac-GTP (Rac1 activity) in NIH3T3 cells (Mus musculus, UniProt P63001); experiment: Rac activation: active Rac immunoprecipitation and immunoblot of Rac-GTP in fibroblasts stimulated by a Rac activator; assay type: cell-based; details: pre-incubated 1 h
T1 construct: endogenous in cells; host or cells: NIH3T3
Experimental: (§1) Cell culture, transfection and actin staining. NIH3T3 cells grew up in DMEM (Gibco; Invitrogen) containing 10% foetal bovine serum, 100 units/mL penicillin and 100 μg/mL streptomycin at 37° C. and 5% CO2. The culture medium was changed every 72 hours.
Analysis of Rac1 activity. In NIH3T3 cells lysates, Rac1 activity was evaluated by active Rac immunoprecipitation using anti-Rac-GTP antibody (26903, NewEast Biosciences). The precipitated active Rac was subjected to SDS-PAGE and detected by immunoblot with anti-Rac1 antibody (BD biosciences).

[2] = tested on: Rac1-dependent ruffle formation in NIH3T3 cells; experiment: Rac activator-induced membrane ruffling (actin staining) in fibroblasts; assay type: cell-based; details: for pIC50: fibroblasts, dose-dependent inhibition
Experimental: as §1
After treatments, fibroblasts were fixed with 4% paraformaldehyde in PBS, permeabilized in PBS 0.5% Triton X-100, and incubated with 130 μg/mL of FITC-conjugated phalloidin (Sigma) to visualize F-actin. After staining, images were captured by a fluorescence microscope (Nikon). The actin cytoskeleton organization was analyzed to observe Rac1-dependent ruffle formation.

fibroblast adhesion = experiment: Cell adhesion assay using impedance technology; assay type: cell-based; details: fibroblasts; for adhesion rate of the cells: 10 μm
Experimental: Cell adhesion assay using impedance technology. Cells (10000/well) were seeded in a 96 well plate microtiter xCELLigence assay plate (E-Plate) (ACEA Biosciences Inc.) and placed on the Real-time xCELLigence Cell Analyzer (Roche Applied Science) platform at 37° C. to measure the “cell index” every 5 min for a period of 6 hours. The cell index unit is defined as (Rn−Rb)/15. Rn is the cell electrode impedance of the well when it contains cells. Rb is the background impedance of the well with the media alone.

RAC1 [3] = target: T2, RAC1 (Homo sapiens, UniProt P63000); experiment: Surface plasmon resonance on immobilised Rac1; assay type: binding
Experimental: Surface plasmon resonance studies. SPR immobilization was performed at 25° C. Rac1, RhoA and Cdc42 purified proteins were diluted to 5 μg/mL in Na^+ acetate buffer (pH 5.0) and injected into sensor chip CM5 (GE Healthcare) in a Biacore T200 (GE Healthcare) that was activated with NHS/EDC buffer. Approximately 5,000 response units of the purified protein were captured on the biosensor chip. Biosensor chips were blocked by an injection of […] ethanolamine (pH 8.5). […] SPR analysis was performed at 25° C. in HBSEP running buffer (5% DMSO). When indicated, EDTA (20 mM) was added in running buffer.

Rac2 = target: T3, Rac2 (Homo sapiens, UniProt P15153); experiment: Nucleotide exchange assay (mant-GTP/mant-GDP), Rac2; assay type: biochemical; details: 10 μM
T3 construct: Full-length human small GTPases carrying a 6-histidine tag fused to their C-terminus; 6-histidine tag (C); made in house; host or cells: E. coli
From the text: (§2) Nucleotide exchange assays. Full-length human small GTPases carrying a 6-histidine tag fused to their C-terminus were expressed in E. coli and purified to homogeneity. Small GTPases were loaded with GDP or N-methylanthraniloyl-GDP (GDP/mant-GDP, JenaBiosciences) before nucleotide exchange kinetics experiments.
(§3) Nucleotide exchange kinetics were monitored by fluorescence of the mant fluorophore (λexc=360 nm, λem=440 nm) or tryptophan fluorescence (for Arf6; λexc=280 nm, λem=[…]) using a Cary Eclipse fluorimeter (Varian, Toulouse, France) at 30° C. under stirring. All kinetics assays were carried out in a buffer containing 50 mM Tris at pH 8, 300 mM NaCl, 2 mM MgCl2, 1 mM DTT and were started by addition of 100 μM N-methylanthraniloy-GTP or GTP (mant-GTP/GTP, JenaBiosciences). Nucleotide exchange kinetics were carried out at a concentration of small GTPases of 1 μM, either without GEF for spontaneous exchange, in the presence of 50 nM GEF for single kobs (s-1) determination. The kobs was determined from single-exponential fit of the fluorescence change. All experiments were carried out at least in triplicate.

RhoG = target: T4, RhoG (Homo sapiens, UniProt P84095); experiment: Nucleotide exchange assay, RhoG; assay type: biochemical; details: 10 μM
T4 construct: Full-length human small GTPases carrying a 6-histidine tag fused to their C-terminus; 6-histidine tag (C); made in house; host or cells: E. coli
T4 sequence (P84095 whole entry, the tested form may be a part): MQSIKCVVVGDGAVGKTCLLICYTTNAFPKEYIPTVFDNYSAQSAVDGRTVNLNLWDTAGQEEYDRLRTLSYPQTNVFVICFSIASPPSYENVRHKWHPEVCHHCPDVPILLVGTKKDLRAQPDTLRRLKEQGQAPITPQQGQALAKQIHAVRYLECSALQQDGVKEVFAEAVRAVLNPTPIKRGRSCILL
From the text: as §2, §3

Rab35 = target: T5, Rab35 (Homo sapiens, UniProt Q15286); experiment: Nucleotide exchange assay, Rab35; assay type: biochemical; details: 10 μM
T5 construct: Full-length human small GTPases carrying a 6-histidine tag fused to their C-terminus; 6-histidine tag (C); made in house; host or cells: E. coli
T5 sequence (Q15286 whole entry, the tested form may be a part): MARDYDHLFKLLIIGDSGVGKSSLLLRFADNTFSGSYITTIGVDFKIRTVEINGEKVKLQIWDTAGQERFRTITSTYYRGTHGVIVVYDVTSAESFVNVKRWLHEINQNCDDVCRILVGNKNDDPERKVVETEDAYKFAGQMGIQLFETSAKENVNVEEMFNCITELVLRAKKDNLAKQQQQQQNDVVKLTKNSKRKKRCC
From the text: as §2, §3

Arf6 = target: T6, Arf6 (Homo sapiens, UniProt P62330); experiment: Nucleotide exchange assay, Arf6; assay type: biochemical; details: 10 μM
T6 construct: Full-length human small GTPases carrying a 6-histidine tag fused to their C-terminus; 6-histidine tag (C); made in house; host or cells: E. coli
T6 sequence (P62330 whole entry, the tested form may be a part): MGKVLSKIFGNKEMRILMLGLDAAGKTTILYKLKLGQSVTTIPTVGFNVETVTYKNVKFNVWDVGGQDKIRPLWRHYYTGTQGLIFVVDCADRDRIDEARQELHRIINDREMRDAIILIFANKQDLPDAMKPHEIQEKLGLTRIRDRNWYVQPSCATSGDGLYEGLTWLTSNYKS
From the text: as §2, §3

3T3 cells migration = experiment: Unidirectional cell migration; assay type: cell-based
Experimental: Unidirectional cell migration. Cells (1000/well) were seeded in a 96 well plate with […] fibronectin stripes (CytooPlates Motility, CYTOO) in medium with 1% SVF and allowed to spread for 4 hours before capturing time-lapse images for 24 hours (image/10 minutes) on a Widefield Leica DMI 6000B drove with Metamorph software. Cells speed was measured with ImageJ software.

[4] = tested on: murine bronchial rings (aSMC contraction); experiment: Airways reactivity ex vivo: methacholine contraction of bronchial rings; details: bronchial rings from control mice, pre-incubated 1 h
Experimental: Airways reactivity ex vivo. Murine primary bronchi were cleaned, cut in rings and mounted on a multichannel isometric myograph in Krebs-Henseleit physiological solution (118.4 mM NaCl, 4.7 mM KCl, 2 mM CaCl2, 1.2 mM MgSO4, 1.2 mM KH2PO4, 25 mM NaHCO3 and 11 mM glucose) at 37° C. under oxygen. A pre-tension of 0.5 mN was applied. We constructed dose-response curves to methacholine (Sigma). When indicated, rings were pre-incubated 1 h before contraction with (2) (or compound A4.1). The wire myograph was connected to a digital data recorder (MacLab/4e, AD Instruments) and recordings were analyzed using LabChart v7 software (AD Instruments).

[5] = tested on: airway hyperresponsiveness; experiment: Airway responsiveness in vivo (whole-body plethysmography, methacholine); parameters: species or system mice; details: mouse model of allergic asthma, acute nebulization (300 μl at 5 mM) 10 min before methacholine
Experimental: Animals use and airways responsiveness measurement in vivo. All experimental procedures and animal care were performed in accordance with the European Community Standards on the Care and Use of Laboratory Animals and approved by the local ethics committee (Comité d'Ethique en Expérimentation Animale des Pays de Loire). Airway responsiveness was assessed in conscious, unrestrained mice using a barometric, whole-body plethysmography (EMKA Technologies) by recording respiratory pressure curves in response to inhaled methacholine (Sigma) at concentrations of 0-40 mg/ml for 1 min. Airway responsiveness was expressed in enhanced pause (Penh) units. The Penh values measured after stimulation were averaged and expressed as the fold-increase over baseline values. When required, the Rac inhibitor (2) was nebulised (300 μl at 5 mM) 10 min before methacholine challenge.

RAC1 [6] = target: T2, RAC1
RAC1 [7] = target: T2, RAC1; details: compared with NSC23766
RAC1 [8] = target: T2, RAC1; experiment: Nucleotide exchange assay (mant-GTP/mant-GDP), Rac1; assay type: biochemical; parameters: Full-length human small GTPases carrying a 6-histidine tag fused to their C-terminus; 6-histidine tag (C); made in house; host or cells: E. coli; details: 10 μM
From the text: as §2, §3

RhoA = RhoA (Homo sapiens, UniProt P61586); experiment: Nucleotide exchange assay, RhoA; assay type: biochemical; parameters: Full-length human small GTPases carrying a 6-histidine tag fused to their C-terminus; 6-histidine tag (C); made in house; host or cells: E. coli; details: 10 μM
RhoA, sequence (P61586 whole entry, the tested form may be a part): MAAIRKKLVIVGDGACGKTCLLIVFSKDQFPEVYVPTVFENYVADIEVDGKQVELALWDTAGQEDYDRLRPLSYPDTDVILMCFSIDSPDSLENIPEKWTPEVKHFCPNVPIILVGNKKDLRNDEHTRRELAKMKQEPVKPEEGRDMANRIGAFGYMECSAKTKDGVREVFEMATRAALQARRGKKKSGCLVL
From the text: as §2, §3

Structure (SMILES): CCN(CC)CCCC(C)Nc1nc(C)cc(Nc2ccc3nc(C)cc(N)c3c2)n1 (centres unmarked) [NSC23766, reference compound]
Rac activation (Rac-GTP level) by a Rac activator [1]: prevented | pIC50 [2]: 5.59 | adhesion rate of the cells (fibroblast adhesion): slow down

Rac activation (Rac-GTP level) by a Rac activator [1]: prevented | SPR binding to Rac1 (RAC1 [3]; 0.78-25 μM injected): binds Rac1 | SPR interaction with Rac1 nucleotide free (RAC1 [3]; EDTA in running buffer): significantly increased | Bmax GTP-binding on Rac2 (Rac2): decreased | nucleotide exchange kinetics of RhoG (RhoG): did not alter | nucleotide exchange kinetics of Rab35 (Rab35): did not alter | nucleotide exchange kinetics of Arf6 (Arf6): did not alter | pIC50 (RAC1 [6]): 9.00 | melting point: 136 °C | Relative activity (NSC23766) (RAC1 [7]): > | Bmax GTP-binding on Rac1 (RAC1 [8]): decreased | nucleotide exchange kinetics of RhoA (RhoA): did not alter
Structure (SMILES): COc1ccc(OC)c(NS(=O)(=O)c2ccc(NC(=O)CCSc3ccc(C)cc3)cc2)c1 [Compound (2), N-(4-(N-(2,5-dimethoxyphenyl)sulfamoyl)phenyl)-3-(p-tolylthio)propanamide]
pIC50 ([2]; Mus musculus, NIH3T3): 9.17 | efficiency of Rac activator to induce ruffle ([2]; added 1 h before Rac activation): blocks; also recorded: strongly decreased | migration inhibition compared with NSC23766 (3T3 cells migration): higher inhibition | migration rate of the cells (3T3 cells migration): decreases; also recorded: slow down | adhesion inhibition compared with NSC23766 (fibroblast adhesion): higher inhibition | adhesion rate of the cells (fibroblast adhesion): decreases; also recorded: slow down | maximal contraction induced by methacholine [4]: dose-dependent reduced | airway hyperresponsiveness (AHR) [5]: prevented
